Values joined by “and” are separate entries in the source; they are usually repeats but may differ in a detail not shown here. Equal values may be shown once. Read-outs that look alike come from different tables or passages of the source.

Data set [1] relates to H3122 non-small cell lung cancer cell line harboring the EML4-ALK fusion gene. As to the kind of experiment: 4-day cell viability assay (WST), H3122. The data set is classed as cell-based. Conditions: Homo sapiens, NCI-H3122, 96 h, 4 days, read-out: IC50 (nM) in Inhibition of Tumor Cell Growth H3122 Cell line. The procedure:
(§1) The effect of compounds on cell viability was determined in a 4-day proliferation assay. Cells were maintained in RPMI1640 culture medium with 10% FBS at 37° C. and an atmosphere of 5% CO2. […] Cells were seeded in 96-well plates at a density of 3,000-10,000 cells/well in 75 μl of culture medium. Compounds were serially diluted in the appropriate medium, and 75 μl of the diluted compounds were added to the appropriate wells of the cell plate. After the addition of compounds, the cells were incubated at 37° C. in an atmosphere of 5% CO2 for 4 days. Cell viability was determined using the CellTiter-Glo® Luminescent Cell Viability Assay Kit (Promega, Madison, Wis.) (for KARPAS-299 cells) or WST (2-(2-methoxy-4-nitrophenyl)-3-(4-nitrophenyl)-5-(2,4-disulfophenyl)-2H-tetrazolium, monosodium salt) Cell Counting-8 Kit (Dojindo Molecular Technologies, Inc., Rockville, Md.) (for H3122 cells) according to the manufacturers' instructions.
For WST assay, WST-8 reagent was added to each well at a final concentration of 10% (v/v), and then the plates were incubated at 37° C. for 1-2 hours for color development. The absorbance was measured at 450 nm using a SPECTRAmax PLUS plate reader (Molecular Devices, Sunnyvale, Calif.). The readings were normalized to the DMSO-treated cells and the half maximal inhibitory concentration (IC50) was calculated by nonlinear regression analysis using the GraphPad Prism 5 software (GraphPad Software, La Jolla, Calif.).
Cells were treated for four days and cell growth was determined using a WST assay.

Data set [2] concerns the target wild-type human ALK protein (cytoplasmic domain, amino acid 1058-1620, GST-fusion) (Homo sapiens, UniProt Q9UM73). As to the kind of experiment: biochemical. Conditions: 100 μM ATP.
The subject of data set [3] is Kappas-299 cells containing NPM-ALK fusion protein. As to the kind of experiment: 4-day cell viability assay (CellTiter-Glo), Kappas-299. Type of data set: cell-based. Conditions: NPM-ALK, 96 h, inhibition of cell growth, 4 days, multiple values from independent experiments. As to the method:
as §1
For CellTiter-Glo assay, 100 μl of CellTiter-Glo® Reagent was added to each well, and then the plates were incubated at room temperature for 10-20 minutes. The luminescent signal was measured using a Tecan Infinite M1000 multimode microplate reader (Tecan, Morrisville, N.C.). The readings were normalized to the DMSO-treated cells and the IC50 was calculated by nonlinear regression analysis using the GraphPad Prism 5 software.
Cells were treated for four days and cell growth was determined using a CellTiter-Glo assay.

The next data set concerns the target ALK mutant (S1206Y) (Homo sapiens, UniProt Q9UM73, S1206Y). As to the kind of experiment: biochemical.
A further data set deals with ALK mutant (G1269A) (Homo sapiens, UniProt Q9UM73, G1269A). As to the kind of experiment: biochemical. The note with it: 100 μM ATP.
Sequence of ALK mutant (G1269A) (Q9UM73 19-1620 G1269A): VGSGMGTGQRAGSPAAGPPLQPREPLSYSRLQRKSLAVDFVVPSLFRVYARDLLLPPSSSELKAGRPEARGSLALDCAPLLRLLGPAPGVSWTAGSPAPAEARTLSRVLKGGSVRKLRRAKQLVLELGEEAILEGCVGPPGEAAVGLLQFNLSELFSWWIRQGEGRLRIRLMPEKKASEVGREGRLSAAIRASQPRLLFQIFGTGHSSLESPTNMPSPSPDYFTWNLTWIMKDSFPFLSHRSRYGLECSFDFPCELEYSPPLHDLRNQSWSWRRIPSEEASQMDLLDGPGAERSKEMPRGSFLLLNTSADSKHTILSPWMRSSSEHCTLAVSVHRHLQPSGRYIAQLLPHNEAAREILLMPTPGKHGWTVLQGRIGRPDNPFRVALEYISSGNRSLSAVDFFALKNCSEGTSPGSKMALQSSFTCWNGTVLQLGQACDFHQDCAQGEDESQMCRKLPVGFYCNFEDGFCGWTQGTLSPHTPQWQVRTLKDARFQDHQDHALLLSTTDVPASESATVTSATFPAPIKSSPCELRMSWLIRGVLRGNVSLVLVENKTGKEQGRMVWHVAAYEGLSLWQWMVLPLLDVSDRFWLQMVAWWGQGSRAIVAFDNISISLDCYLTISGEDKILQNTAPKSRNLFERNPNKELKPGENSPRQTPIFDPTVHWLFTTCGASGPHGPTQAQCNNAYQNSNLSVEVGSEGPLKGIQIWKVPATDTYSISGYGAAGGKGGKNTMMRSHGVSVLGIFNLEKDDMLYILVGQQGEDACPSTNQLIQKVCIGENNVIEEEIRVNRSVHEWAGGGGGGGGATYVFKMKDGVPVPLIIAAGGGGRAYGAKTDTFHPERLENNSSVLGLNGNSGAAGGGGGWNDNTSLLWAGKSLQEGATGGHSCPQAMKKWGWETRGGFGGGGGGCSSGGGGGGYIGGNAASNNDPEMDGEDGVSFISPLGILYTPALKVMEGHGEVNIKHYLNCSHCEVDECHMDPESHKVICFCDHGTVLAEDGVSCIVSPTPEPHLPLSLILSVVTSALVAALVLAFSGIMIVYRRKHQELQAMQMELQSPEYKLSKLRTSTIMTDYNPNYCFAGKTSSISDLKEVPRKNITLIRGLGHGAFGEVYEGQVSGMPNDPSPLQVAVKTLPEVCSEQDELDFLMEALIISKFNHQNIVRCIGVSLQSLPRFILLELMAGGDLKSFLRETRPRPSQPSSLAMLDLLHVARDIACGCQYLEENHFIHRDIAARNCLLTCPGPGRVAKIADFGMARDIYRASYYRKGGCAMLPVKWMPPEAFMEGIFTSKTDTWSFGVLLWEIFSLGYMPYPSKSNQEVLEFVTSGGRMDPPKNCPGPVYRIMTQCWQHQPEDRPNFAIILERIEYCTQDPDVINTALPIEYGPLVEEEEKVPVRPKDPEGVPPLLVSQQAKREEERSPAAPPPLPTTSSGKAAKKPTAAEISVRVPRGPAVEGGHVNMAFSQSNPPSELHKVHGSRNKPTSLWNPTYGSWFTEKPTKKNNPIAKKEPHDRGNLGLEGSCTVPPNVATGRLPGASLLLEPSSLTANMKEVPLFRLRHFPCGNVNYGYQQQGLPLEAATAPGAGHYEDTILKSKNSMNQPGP
The nature of data set [4]: Pharmacokinetic parameters in SD rats, IV and PO. Further details: AUC(0-t): concentration or dose not given beside the values. Conditions: Sprague-Dawley (SD), rat, in vivo; for bioavailability: po, read-out: Oral Bioavailability (F). The text has this: The pharmacokinetic (PK) parameters in SD rats for selected compounds with intravenous (IV) and oral (PO) administrations are provided in the following table (Table 5).

Setting [5] is: intravenous, read-out: AUC0-t IV.
Where [6] appears, read: intravenous, read-out: t1/2 IV (converted).
Where [7] appears, read: oral, read-out: t1/2 PO (converted).

Sequence of wild-type human ALK protein (cytoplasmic domain, amino acid 1058-1620, GST-fusion) (Q9UM73 1058-1620): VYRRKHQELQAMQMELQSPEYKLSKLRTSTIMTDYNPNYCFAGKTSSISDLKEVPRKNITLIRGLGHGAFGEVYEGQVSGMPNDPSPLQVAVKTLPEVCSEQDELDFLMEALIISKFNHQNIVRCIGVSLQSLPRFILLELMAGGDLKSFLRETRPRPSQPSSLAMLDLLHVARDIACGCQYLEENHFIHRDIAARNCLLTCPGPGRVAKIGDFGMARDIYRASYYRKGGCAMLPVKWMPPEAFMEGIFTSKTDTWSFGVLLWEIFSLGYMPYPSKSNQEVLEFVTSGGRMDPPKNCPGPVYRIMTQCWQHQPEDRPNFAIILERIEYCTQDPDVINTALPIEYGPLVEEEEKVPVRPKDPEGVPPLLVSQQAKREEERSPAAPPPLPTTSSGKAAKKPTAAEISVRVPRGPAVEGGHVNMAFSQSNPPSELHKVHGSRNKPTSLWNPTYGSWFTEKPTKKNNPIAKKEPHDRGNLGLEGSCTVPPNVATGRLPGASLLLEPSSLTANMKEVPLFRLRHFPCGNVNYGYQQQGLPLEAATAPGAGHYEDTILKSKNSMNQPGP
Sequence of ALK mutant (S1206Y) (Q9UM73 19-1620 S1206Y): as the sequence (Q9UM73 19-1620 G1269A) above, with S1188Y, A1251G counted along it

In the case of `CCc1cc2c(=O)c3c4ccc(C#N)cc4[nH]c3n(C(C)C)c2cc1N1CCC(N2CCOCC2)CC1` [ALK-78, 2-Ethyl-5-isopropyl-3-(4-morpholinopiperidin-1-yl)-11-oxo-6,11-dihydro-5H-indolo[2,3-b]quinoline-8-carbonitrile], the concentration for half-maximal inhibition (IC50) in data set [1] turned out to be 13.1 nM; in data set [2] (ALK IC50, wild-type ALK), 0.7 nM; in data set [3], 25 nM.
The corresponding values for `CCc1cc2c(=O)c3c4ccc(C#N)cc4[nH]c3n(C(C)C)c2cc1N1CCC(N2CCN(C)CC2)CC1` [ALK-79, 2-Ethyl-5-isopropyl-3-(4-(4-methylpiperazin-1-yl)piperidin-1-yl)-11-oxo-6,11-dihydro-5H-indolo[2,3-b]quinoline-8-carbonitrile] are 2 ± 1 nM, 0.11 nM and 9.6 nM.
The corresponding values for `COc1cc2c(=O)c3c4ccc(C#N)cc4[nH]c3n(C3CCC3)c2c(F)c1N1CCN(C)CC1` [ALK-75, 5-Cyclobutyl-4-fluoro-2-methoxy-3-(4-methylpiperazin-1-yl)-11-oxo-6,11-dihydro-5H-indolo[2,3-b]quinoline-8-carbonitrile] are 35.9 nM, 3.6 nM and 22 nM.
In the case of `C#Cc1cc2c(=O)c3c4ccc(C#N)cc4[nH]c3n(C(C)C)c2cc1N1CCN(C)CC1` [ALK-71, 2-Ethynyl-5-isopropyl-3-(4-methylpiperazin-1-yl)-11-oxo-6,11-dihydro-5H-indolo[2,3-b]quinoline-8-carbonitrile], the IC50 was 1.3 nM at ALK mutant (S1206Y); 0.47 nM and 0.55 nM at ALK mutant (G1269A); 0.31 nM in data set [2] (ALK IC50, wild-type ALK); 0.31 nM in data set [2] (IC50 ALK Wild-type, Table 2, wild-type ALK); 31 nM in data set [3].
For the molecule `CCc1cc2c(=O)c3c4ccc(C#N)cc4[nH]c3n(C(C)C)c2cc1C1CCN(CCO)CC1` [CJ-2241, 2-Ethyl-3-(1-(2-hydroxyethyl)piperidin-4-yl)-5-isopropyl-11-oxo-6,11-dihydro-5H-indolo[2,3-b]quinoline-8-carbonitrile], the half-maximal inhibitory concentration (IC50) in data set [1] amounted to 154 nM; in data set [2] (ALK IC50, wild-type ALK) it was 0.32 nM; in data set [3] it was 292 nM.
Taken in the same sequence, the figures for `CCc1cc2c(=O)c3c4ccc(C#N)cc4[nH]c3n(C(C)C)c2cc1C1CCN(C)CC1` [CJ-2217, 2-Ethyl-5-isopropyl-3-(1-methylpiperidin-4-yl)-11-oxo-6,11-dihydro-5H-indolo[2,3-b]quinoline-8-carbonitrile] were 17 ± 8 nM, 0.52 nM and 14 nM.
Regarding `COc1cc2c(=O)c3c4ccc(C#N)cc4[nH]c3n(C3CCC3)c2c(F)c1N1CCC(N2CCOCC2)CC1` [ALK-74, 5-Cyclobutyl-4-fluoro-2-methoxy-3-(4-morpholinopiperidin-1-yl)-11-oxo-6,11-dihydro-5H-indolo[2,3-b]quinoline-8-carbonitrile], the IC50 is 84 nM in data set [1]; 8.4 nM in data set [2] (ALK IC50, wild-type ALK); 98 nM in data set [3].
Taken in the same sequence, the figures for `CCc1cc2c(=O)c3c4ccc(C#N)cc4[nH]c3n(C(C)C)c2cc1C1CCN(C2CCOCC2)CC1` [CJ-2240, 2-Ethyl-5-isopropyl-11-oxo-3-(1-(tetrahydro-2H-pyran-4-yl)piperidin-4-yl)-6,11-dihydro-5H-indolo[2,3-b]quinoline-8-carbonitrile] were 33 ± 12 nM, 0.78 nM and 35 nM.
Taken in the same sequence, the figures for `CCc1cc2c(=O)c3c4ccc(C#N)cc4[nH]c3n(C(C)C)c2cc1C1CCN(C2COC2)CC1` [CJ-2238, 2-Ethyl-5-isopropyl-3-(1-(oxetan-3-yl)piperidin-4-yl)-11-oxo-6,11-dihydro-5H-indolo[2,3-b]quinoline-8-carbonitrile] were 1040 nM, 2.6 nM and 231 nM.
The corresponding values for `CC(C)Oc1cc2c(=O)c3c4ccc(C#N)cc4[nH]c3n(C(C)C)c2c(F)c1N1CCC(N2CCOCC2)CC1` [ALK-85, 4-Fluoro-2-isopropoxy-5-isopropyl-3-(4-morpholinopiperidin-1-yl)-11-oxo-6,11-dihydro-5H-indolo[2,3-b]quinoline-8-carbonitrile] are 148 ± 26 nM, 22.9 nM and 66 nM.
Take `CCc1cc2c(=O)c3c4ccc(C#N)cc4[nH]c3n(C(C)C)c2cc1N1CCN(C2COC2)CC1` [ALK-77, 2-Ethyl-5-isopropyl-3-(4-(oxetan-3-yl)piperazin-1-yl)-11-oxo-6,11-dihydro-5H-indolo[2,3-b]quinoline-8-carbonitrile]: the concentration for half-maximal inhibition (IC50) worked out at 25.9 nM in data set [1]; 1.1 nM in data set [2] (ALK IC50, wild-type ALK); 31 nM in data set [3].
Take `CCOc1cc2c(=O)c3c4ccc(C#N)cc4[nH]c3n(C(C)C)c2c(F)c1N1CCN(C)CC1` [ALK-83, 2-Ethoxy-4-fluoro-5-isopropyl-3-(4-methylpiperazin-1-yl)-11-oxo-6,11-dihydro-5H-indolo[2,3-b]quinoline-8-carbonitrile]: the IC50 in data set [1] came to 8.8 nM; in data set [2] (ALK IC50, wild-type ALK) it was 2 nM; in data set [3], 21 nM. Moreover, the AUC(0-t) was found to be 1100 ng·h/mL in data set [4] (setting [5]) and 4430 ng·h/mL in data set [4] (oral, read-out: AUC0-t PO). Besides, the Cmax in data set [4] (intravenous, read-out: Cmax IV) turned out to be 346 ng/mL; in data set [4] (oral, read-out: Cmax PO), 548 ng/mL. The Tmax in data set [4] (intravenous, read-out: Tmax IV) came out at 0.083 h; in data set [4] (oral, read-out: Tmax PO), 4 h. Besides, the results for the half-life in data set [4] (setting [6]) and in data set [4] (setting [7]) were 5.24 h and 4.1 h, respectively. Besides, the bioavailability in data set [4] was found to be 78.8%.
On to `CCc1cc2c(=O)c3c4ccc(C#N)cc4[nH]c3n(C(C)C)c2cc1N1CCN(C(C)C)CC1` [ALK-80, 2-Ethyl-5-isopropyl-3-(4-isopropylpiperazin-1-yl)-11-oxo-6,11-dihydro-5H-indolo[2,3-b]quinoline-8-carbonitrile], for which the IC50 came to 3 ± 1 nM in data set [1]; 0.22 nM in data set [2] (ALK IC50, wild-type ALK); 7.6 nM in data set [3].
For the molecule `CCOc1cc2c(=O)c3c4ccc(C#N)cc4[nH]c3n(C(C)C)c2c(F)c1N1CCC(N2CCOCC2)CC1` [ALK-76, 2-Ethoxy-4-fluoro-5-isopropyl-3-(4-morpholinopiperidin-1-yl)-11-oxo-6,11-dihydro-5H-indolo[2,3-b]quinoline-8-carbonitrile], the IC50 in data set [1] came out at 85 ± 11 nM; in data set [2] (ALK IC50, wild-type ALK), 2.5 nM; in data set [3] it was 35 nM.
In the case of `CC(C)Oc1cc2c(=O)c3c4ccc(C#N)cc4[nH]c3n(C(C)C)c2c(F)c1N1CCN(C)CC1` [ALK-86, 4-Fluoro-2-isopropoxy-5-isopropyl-3-(4-methylpiperazin-1-yl)-11-oxo-6,11-dihydro-5H-indolo[2,3-b]quinoline-8-carbonitrile], the half-inhibitory concentration (IC50) was 161 nM in data set [1]; 5.8 nM in data set [2] (ALK IC50, wild-type ALK); 31 nM in data set [3]. In addition, the AUC(0-t) in data set [4] (setting [5]) was 1080 ng·h/mL; in data set [4] (oral, read-out: AUC0-t PO) it was 2440 ng·h/mL. The Cmax in data set [4] (intravenous, read-out: Cmax IV) amounted to 261 ng/mL; in data set [4] (oral, read-out: Cmax PO), 258 ng/mL. The time to peak (Tmax) in data set [4] (intravenous, read-out: Tmax IV) was 0.083 h; in data set [4] (oral, read-out: Tmax PO), 4 h. Further, the half-life in data set [4] (setting [6]) is 5.23 h; in data set [4] (setting [7]), 5.11 h. In addition, the bioavailability in data set [4] was 44.6%.
Take `CCc1cc2c(=O)c3c4ccc(C#N)cc4[nH]c3n(C(C)C)c2cc1C1CCN(C(C)C)CC1` [CJ-2239, 2-Ethyl-5-isopropyl-3-(1-isopropylpiperidin-4-yl)-11-oxo-6,11-dihydro-5H-indolo[2,3-b]quinoline-8-carbonitrile]: the IC50 was 36 ± 13 nM in data set [1]; 0.77 nM in data set [2] (ALK IC50, wild-type ALK); 16 nM in data set [3].

For orientation: IC50 means the concentration at which inhibition is half-maximal. Usually Cmax stands for the maximum level reached in the sampled fluid or tissue. The term Tmax denotes the time at which the peak concentration occurs. By bioavailability is commonly meant dose-corrected exposure relative to a reference, in per cent.

For the origin of these results see patent US9783539B2, “Indoloquinolone compounds as anaplastic lymphoma kinase (ALK) inhibitors” (Jiangsu Ascentage Biomed Development Inc., priority 2014, dated 2017).
